# Experimental data taken from patent US11015061B2, “Phthalocyanine-based compound and uses of same” (YAMAMOTO CHEMICALS, INC., priority 2017, dated 2021).
# Assays:
# Format in all cases: physicochemical
# [1] = Absorption spectrum of toluene solution (maximum absorption, gram absorption coefficient); settings: for gram absorption coefficient: at maximum absorption
# Experimental: A toluene solution of the compound obtained in this way had maximum absorption at 734.0 nm, and the gram absorption coefficient thereof was 1.21×10^5 mL/g·cm. The absorption spectrum chart thereof is illustrated in FIG. 1.
# [2] = Visible light transmittance of chloroform solution; settings: spectrum converted to transmittance 10% at near-infrared maximum absorption wavelength
# Experimental: The visible light transmittance of the phthalocyanine-based compound of the present invention and the comparative example compounds was measured by the following measurement method.
# Each of the phthalocyanine compounds ([…]) and approximately 90 mL of chloroform were put into a 100 mL volumetric flask, and the solution in the flask was irradiated with ultrasonic waves for 30 minutes and left to stand for 2 hours at room temperature. Then, chloroform was added thereto such that the meniscus of the solution matched up with the calibration mark on the volumetric flask, thereby preparing a 10 mg/L phthalocyanine solution. The prepared solution was put into a 1 cm×1 cm cell made of PYREX (registered trademark), and the absorption spectrum thereof was measured using a spectrophotometer (produced by Hitachi, Ltd.: Spectrophotometer U-3500).
# The absorption spectrum measured as above was converted such that the absorbance became 1.0, that is, the transmittance became 10% at the maximum absorption wavelength in a near-infrared range, thereby obtaining a transmission spectrum. […] At 460 nm, the transmittance of the compound of the present invention was approximately the same as the transmittance of Comparative Examples 1 and 2.
# [3] = Tts (total solar transmittance) of heat ray shielding film; settings: heat ray shielding film (5 g compound, 50 g acryl resin LP-45M, 2.5 μm on PET) on 3 mm glass plate; JIS R3106
# Text: The phthalocyanine compound (Specific Example (1)-30) produced in Example 1 (5 g), 50 g of an acryl resin LP-45M (trade name, produced by Soken Chemical & Engineering Co., Ltd.), 20 g of methyl ethyl ketone, and 20 g of toluene were mixed and stirred together, thereby producing a resin composition.
# As a transparent substrate, a polyethylene terephthalate film (PET film) having a thickness of 100 μm was bar-coated with the resin composition such that the thickness thereof became 2.5 μm, and then the applied resin composition was dried for 3 minutes at 100° C. Furthermore, the other surface of the PET film (surface not being coated with the resin composition) was bar-coated with a transparent acryl copolymer-based pressure sensitive adhesive such that the thickness thereof became 20 μm, and the applied pressure sensitive adhesive was dried and cured for 3 minutes at 100° C. Thereafter, a release film was bonded to the surface of the pressure sensitive adhesive, thereby producing a heat ray shielding film.
# In the evaluation test, the release film was peeled from the produced heat ray shielding film, then the heat ray shielding film was compressed on a 5 cm×5 cm×3 mm (thickness) glass plate, and a test piece created in this way was used.
# By using U-3500 type recording spectrophotometer produced by Hitachi, Ltd. as a measurement instrument, Tts of the laminated glass sample was measured based on JIS R3106 “Testing method for transmittance, reflectance, emissivity, and solar heat gain coefficient of flat glasses”.
# Tts (Total solar energy transmitted through a glazing) represents a total solar transmittance.
# [4] = Tts of laminated glass sample; settings: 0.76 mm PVB interlayer with 0.013 g compound per 100 g resin, JIS R3106
# Experimental: (§1) The phthalocyanine-based compound (Specific Example (1)-30) produced in Example 1 (0.013 g) was dissolved in 40 g of triethylene glycol-di-2-ethylhexanoate as an organic ester plasticizer. The obtained solution was added to 100 g of a polyvinyl butyral resin (trade name: BH-3, produced by SEKISUI CHEMICAL CO., LTD.), thoroughly melted and kneaded using a mixing roll, and extruded using an extruder, thereby obtaining an interlayer having a thickness of 0.76 mm.
# (§2) The interlayer was cut in size of 100 mm×100 mm, interposed between heat ray absorbing glass plates (100 mm (length)×100 mm (width)×2.0 mm (thickness)) prepared based on JIS R3208, put into a rubber bag, and deaerated for 20 minutes at a degree of vacuum of 2.6 kPa. Then, the deaerated laminate was moved into an oven and further hold for 30 minutes at 90° C. to vacuum press. Thereafter, the laminate was compressed for 20 minutes in an autoclave under the condition of a temperature of 130° C. and a pressure of 1.3 MPa, thereby obtaining a laminated glass sample.
# By using U-3500 type recording spectrophotometer produced by Hitachi, Ltd. as a measurement instrument, Tts of the laminated glass samples was measured based on JIS R3106 “Testing method for transmittance, reflectance, emissivity, and solar heat gain coefficient of flat glasses”.
# [5] = Visible light transmittance of laminated glass sample; settings: 380 to 780 nm, JIS R3212
# Experimental: as §1, §2
# By using U-3500 type recording spectrophotometer produced by Hitachi, Ltd. as a measurement instrument, the visible light transmittance of the laminated glass samples at a wavelength of 380 to 780 nm was measured based on JIS R3212 “Test methods of safety glazing materials for road vehicles”.
# [6] = Light fastness test of laminated glass; settings: xenon light 200 hours at 550 W/h, absorbance integrated 400 to 900 nm
# Experimental: as §1, §2
# For a light fastness test, the absorption spectrum of the laminated glass was measured using a spectrophotometer (produced by Hitachi, Ltd.: Spectrophotometer U-3500) and adopted as a spectrum before light fastness test. Then, the laminated glass used for measuring the spectrum before test was irradiated with light for 200 hours at 550 W/h by using a xenon light fastness tester (produced by Toyo Seiki Seisaku-sho, Ltd.: SUNTEST XLS+). The absorption spectrum of the laminated glass irradiated with light was measured using the spectrophotometer and adopted as a spectrum after light fastness test.
# (§3) In each of the spectra measured as above before and after the light fastness⋅heat resistance test, the values of absorbance within a range of 400 to 900 nm were integrated, and a difference between the integrated value before the light fastness⋅heat resistance test and the integrated value after the light fastness⋅heat resistance test was calculated.
# (§4) The difference ΔE between the absorbance before the light fastness⋅heat resistance test and the absorbance after the light fastness⋅heat resistance test is expressed by the following equation. ΔE (%)={E(400 to 900 nm in E1)−E(400 to 900 nm in E2)}/E(400 to 900 nm in E1)×100
# (§5) E1 represents the spectrum before test, E2 represents the spectrum after test, and Σ represents integration of values of absorbance. The larger the value of ΔE, the greater the spectrum change between before and after the light fastness⋅heat resistance test.
# [7] = Heat resistance test of laminated glass; settings: 200 hours at 100° C., absorbance integrated 400 to 900 nm
# Experimental: as §1, §2
# For a heat resistance test, the laminated glass used for measuring the spectrum before test as described above was treated with heat for 200 hours at a temperature of 100° C. in a thermostat (produced by Yamato Scientific co., ltd.: IG400). By using the spectrophotometer, the absorption spectrum of the heat-treated laminated glass was measured and adopted as a spectrum after heat resistance test.
# as §3, §4, §5
maximum absorption [1] [nm],gram absorption coefficient [1] [mL/g/cm],Transmittance (%) 460 nm [2] [%],Transmittance (%) 610 nm [2] [%],Tts [3] [%],Tts [4] [%],Visible light transmittance [5] [%],ΔE (%) Light fastness [6] [%],ΔE (%) Heat resistance [7] [%],Compound
733.0,130000,97.9,86.6,89.5,53.6,75,33,35,"COCc1ccc(COC)c2c1-c1nc-2nc2[n-]c(nc3nc(nc4[n-]c(n1)c1c(COC)ccc(COC)c41)-c1c(COC)ccc(COC)c1-3)c1c(COC)ccc(COC)c21.[O]=[V+2] [Comparative Example Compound (a), reference compound]"
734.0,121000,98.1,88.4,86.1,53.2,78.1,5,6,COCCCCc1ccc(CCCCOC)c2c1-c1nc-2nc2[n-]c(nc3nc(nc4[n-]c(n1)c1c(CCCCOC)ccc(CCCCOC)c41)-c1c(CCCCOC)ccc(CCCCOC)c1-3)c1c(CCCCOC)ccc(CCCCOC)c21.[O]=[V+2] [Specific Example (1)-30]
705.5,78900,99.2,88.3,86,51.5,77.7,3,2,COCCCCc1ccc(CCCCOC)c2c1-c1nc-2nc2[n-]c(nc3nc(nc4[n-]c(n1)c1c(CCCCOC)ccc(CCCCOC)c41)-c1c(CCCCOC)ccc(CCCCOC)c1-3)c1c(CCCCOC)ccc(CCCCOC)c21.[Cu+2] [Specific Example (1)-31]
734.0,119000,98.1,88.3,85.8,51.5,77.5,2,3,CCOCCCCc1ccc(CCCCOCC)c2c1-c1nc-2nc2[n-]c(nc3nc(nc4[n-]c(n1)c1c(CCCCOCC)ccc(CCCCOCC)c41)-c1c(CCCCOCC)ccc(CCCCOCC)c1-3)c1c(CCCCOCC)ccc(CCCCOCC)c21.[O]=[V+2] [Specific Example (1)-33]
735.5,86300,98.0,88.1,85.5,52.6,77.9,3,3,[O]=[V+2].c1ccc(OCCCCc2ccc(CCCCOc3ccccc3)c3c2-c2nc-3nc3[n-]c(nc4nc(nc5[n-]c(n2)c2c(CCCCOc6ccccc6)ccc(CCCCOc6ccccc6)c52)-c2c(CCCCOc5ccccc5)ccc(CCCCOc5ccccc5)c2-4)c2c(CCCCOc4ccccc4)ccc(CCCCOc4ccccc4)c32)cc1 [Specific Example (1)-37]
735.0,71600,98.3,88.6,85.8,51.7,77.8,4,2,[O]=[V+2].c1ccc(OCCOCCCCc2ccc(CCCCOCCOc3ccccc3)c3c2-c2nc-3nc3[n-]c(nc4nc(nc5[n-]c(n2)c2c(CCCCOCCOc6ccccc6)ccc(CCCCOCCOc6ccccc6)c52)-c2c(CCCCOCCOc5ccccc5)ccc(CCCCOCCOc5ccccc5)c2-4)c2c(CCCCOCCOc4ccccc4)ccc(CCCCOCCOc4ccccc4)c32)cc1 [Specific Example (1)-38]
735.5,74000,97.7,88.1,85.9,52.7,78,4,3,COc1cccc(OCCCCc2ccc(CCCCOc3cccc(OC)c3)c3c2-c2nc-3nc3[n-]c(nc4nc(nc5[n-]c(n2)c2c(CCCCOc6cccc(OC)c6)ccc(CCCCOc6cccc(OC)c6)c52)-c2c(CCCCOc5cccc(OC)c5)ccc(CCCCOc5cccc(OC)c5)c2-4)c2c(CCCCOc4cccc(OC)c4)ccc(CCCCOc4cccc(OC)c4)c32)c1.[O]=[V+2] [Specific Example (1)-39]
706.5,67800,99.4,88.0,85.9,52,77.9,2,2,COc1cccc(OCCCCc2ccc(CCCCOc3cccc(OC)c3)c3c2-c2nc-3nc3[n-]c(nc4nc(nc5[n-]c(n2)c2c(CCCCOc6cccc(OC)c6)ccc(CCCCOc6cccc(OC)c6)c52)-c2c(CCCCOc5cccc(OC)c5)ccc(CCCCOc5cccc(OC)c5)c2-4)c2c(CCCCOc4cccc(OC)c4)ccc(CCCCOc4cccc(OC)c4)c32)c1.[Cu+2] [Specific Example (1)-40]
